Results from patent US20150104520A1, “Nanoparticle Formulations in Biomarker Detection” (priority 2013, published 2015).

System: patients with epithelial ovarian cancer
Experiment: Phase 2 randomized two-arm trial, IG-001 plus carboplatin vs paclitaxel plus carboplatin, 1st line
Description: Phase II ovarian trial design: randomized, two-arm trial, primary advanced epithelial ovarian cancer consisting of 100 patients (50/each arm). […] The primary objective of the study was to determine the Composite Response by GCIG CA-125 Response and Response Evaluation Criteria in Solid Tumors (RECIST): based on non-inferiority study. […] The treatment regimen included 6 cycles of treatment with injection every three weeks and tumor screening after cycles 2, 4 and 6.

Paclitaxel + Carboplatin
Response n (%) (composite response by GCIG CA-125 and RECIST, IG-001 260 mg/m^2 or paclitaxel 175 mg/m^2, each + carboplatin 5 AUC, every 3 weeks, 6 cycles): 37 (77.08) n (%) | SAE Rate (%) (patients with SAE): 15 (31.25) n (%) | UAE Rate (%) (patients with UAE): 0 (0.00) n (%)

CC(=O)O[C@H]1C(=O)[C@@]2(C)[C@H]([C@H](OC(=O)c3ccccc3)[C@]3(O)C[C@H](OC(=O)[C@H](O)[C@@H](NC(=O)c4ccccc4)c4ccccc4)C(C)=C1C3(C)C)[C@]1(OC(C)=O)CO[C@@H]1C[C@@H]2O [paclitaxel]
response rate (each with carboplatin): 77.8%
